Data set [1] has as its system high spontaneous activity induced by PCP in mice. Briefly: Inhibition of high spontaneous activity induced by PCP in mice. Format: in vivo. The note with it: p.o., PCP 5 mg/kg i.p., male C57Bl/6J mice. The procedure:
Compounds to be tested: compounds of the examples of the present application, self-made.
That is, animals were transferred from the feeding room to the laboratory, and moved freely in the cage.
(§1) Drug preparation: taking the compound to be tested, adding pure water and performing ultrasonication.
T0 min intraperitoneal injection of modeling drug: 30 minutes after compound administration, the mice were taken out, and administered with PCP (5 mg/kg) by intraperitoneal injection. The blank control group was injected with pure water. After the administration of PCP, the animals were immediately put back into the test box, and the test was continued for 60 minutes.
(§2) The activities of these animals (movement distance in the test box) were automatically recorded by the camera, and analyzed with ANY MAZE software, and the ED50 values were calculated.

For a further data set, the target named is T1, TAAR1 receptor (Homo sapiens, UniProt Q96RJ0).
T1 sequence (Q96RJ0 1-339): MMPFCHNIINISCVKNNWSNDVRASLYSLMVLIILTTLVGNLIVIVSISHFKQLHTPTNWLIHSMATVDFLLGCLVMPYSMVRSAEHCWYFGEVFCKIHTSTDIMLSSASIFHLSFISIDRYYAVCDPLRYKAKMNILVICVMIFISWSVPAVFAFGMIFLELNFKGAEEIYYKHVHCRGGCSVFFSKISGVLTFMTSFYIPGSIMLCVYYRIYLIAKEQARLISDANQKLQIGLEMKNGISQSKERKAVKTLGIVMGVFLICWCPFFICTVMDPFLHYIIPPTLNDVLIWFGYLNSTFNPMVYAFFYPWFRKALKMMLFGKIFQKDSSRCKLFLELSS
Kind of data set: TAAR1 receptor cAMP agonist test. Type of data set: cell-based. The source says: The cAMP detection kit was purchased from Cisbio; the […] cell line stably expressing TAAR1 receptor was constructed by Shanghai Shujing Biotechnology Co., Ltd.; IBMX was purchased from Sigma; Phenethylamine (PEA); ProxiPlate-384 well plate was purchased from PerkinElmer; HBSS was purchased from Thermo Fisher Scientific Company.
Activation rate (activity%)=(negative control ratio-compound ratio)/(negative control ratio-positive control ratio)×100%.
The EC50 values of the compounds were calculated using the four-parameter fitting model log(agonist)vs.response--Variable slope(four parameters) in GraphPad Prism.

In data set [2] the test system is high spontaneous activity induced by MK-801 in mice. Kind of data set: Inhibition of high spontaneous activity induced by MK-801 in mice. Format: in vivo. The note with it: p.o., MK-801 0.3 mg/kg i.p., male C57Bl/6J mice. The procedure:
Compounds to be tested: compounds in the examples of the present application, self-made.
3.2.1 Grouping of animals: before the start of the experiment, animals were randomly grouped according to body weight.
3.2.2 Animal adaptation: before the experiment, the mice were first adapted to the experimental environment for at least 1 hour. That is, the animals were transferred from the breeding room to the laboratory and moved freely in the cage.
as §1
The blank control group was injected with normal saline.
as §2

The next data set concerns the target T2, 5-HT1A receptor (Homo sapiens, UniProt P08908).
T2 sequence (P08908 1-422): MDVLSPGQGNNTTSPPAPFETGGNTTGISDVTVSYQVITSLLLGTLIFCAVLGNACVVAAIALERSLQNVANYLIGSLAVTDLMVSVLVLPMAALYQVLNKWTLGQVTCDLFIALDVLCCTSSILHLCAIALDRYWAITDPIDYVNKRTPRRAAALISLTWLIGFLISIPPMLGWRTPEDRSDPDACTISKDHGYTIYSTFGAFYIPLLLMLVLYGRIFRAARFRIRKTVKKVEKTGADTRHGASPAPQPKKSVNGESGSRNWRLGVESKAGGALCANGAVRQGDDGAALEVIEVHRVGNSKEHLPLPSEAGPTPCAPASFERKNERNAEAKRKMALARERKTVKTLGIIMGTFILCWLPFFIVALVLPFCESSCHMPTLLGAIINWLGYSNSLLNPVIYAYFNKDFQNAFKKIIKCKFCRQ
Briefly: 5-HT1A receptor cAMP agonist test. Format: cell-based. The source says:
The cAMP detection kit was purchased from Cisbio; the HEK293 cell line stably expressing 5-HT1A receptor was constructed by Shanghai Shujing Biotechnology Co., Ltd.; Serotonin, Forskolin and IBMX were purchased from Sigma; ProxiPlate-384-well plates was purchased from PerkinElmer; HBSS was purchased from Thermo Fisher Scientific.
Activation rate (activity%)=(negative control ratio-compound ratio)/(negative control ratio-positive control ratio)×100%
The EC50 values of the compounds were calculated using the four-parameter fitting model log(agonist)vs. response--Variable slope(four parameters) in Graph Pad Prism.

Data set [3] in a line: Mouse pharmacokinetic experiment, oral gavage. The note with it: ICR mice, 5 mg/kg, plasma. Format: in vivo. The procedure:
The mice were administered by oral gavage, and the plasma concentrations of each hydrochloride crystal form of Compound A in mice were determined, the PK parameters were calculated, and the pharmacokinetics were evaluated.
• (1) Experimental samples: hydrochloride crystal forms I, II, and III of Compound A of the present application, self-made. • (2) Experimental animals: ICR mice, SPF grade, male, Shanghai SLAC Laboratory Animal Co., Ltd.
The compound was administered via oral gavage at a dosage of 5 mg/kg. ICR mice were stratified by body weight and randomly divided into groups of 3 mice each, and fasted overnight before the experiment. Administering according to the prescribed dosage and schedule, and […] of blood was taken from the mandibular vein or saphenous vein of mice by cross sampling at fixed time points to a sample tube containing anticoagulant sodium heparin and placed in wet ice, centrifuging at 4000 r · min^-1 for 10 minutes to separate the plasma for LC-MS analysis.
The measured blood drug concentration-time data was substituted into the Winnonlin 7.0 program to calculate the main pharmacokinetic parameters. Table 3.3: Results of mouse pharmacokinetic experiments

Data set [4] in a line: Equilibrium solubility in water for 24 hours. Format: physicochemical. As for the experimental part: Investigating the equilibrium solubility of each hydrochloride crystal form of Compound A in water for 24 hours.
Excess samples of hydrochloride crystal form I and hydrochloride crystal form II of Compound A were weighed and placed in different 10 mL centrifuge tubes, and 1 mL of deionized water was added, sealed with a parafilm, shaking at a constant temperature of 37°C and 150 rpm for 24 hours; after passing through a 0.45 µm organic filter, the sample was diluted and injected for HPLC analysis.

Data set [5] is described as follows: Solution stability at different pH (HPLC content, 0-24 hours). Format: physicochemical. Particulars: after 24 hours at pH 1.0, 3.0, 5.0 and 7.0. The procedure: Investigating the solution stability of each hydrochloride crystal form of Compound A.
Solutions with pH of 1.0, 3.0, 5.0, and 7.0 solutions were prepared using hydrochloric acid, phosphoric acid, and sodium hydroxide. Appropriate amounts of hydrochloride crystal form I and hydrochloride crystal form II of Compound A were accurately weighed respectively and added to corresponding 20 mL volumetric flasks and labeled, dissolving in media with different pH, passing through a 0.45 µ m organic filters for HPLC analysis. The content changes of the samples from 0-24 hours were monitor, and the results were calculated.

A short description of data set [6]: Solid (chemical) stability under high temperature, high humidity and light. Type of data set: physicochemical. As for the experimental part:
Investigating the chemical stability of each hydrochloride crystal form of Compound A under high temperature, high humidity, and light conditions.
Appropriate amounts of hydrochloride crystal form I and hydrochloride crystal form II of Compound A were weighed and placed in weighing dishes respectively; three samples for each salt were prepared, and placed respectively in a oven at 60°C, a drying dish with RH 92.5%, and a stability test chamber with an illumination condition of 5000 1x for 85 days. After mixing all samples evenly at day 0, day 10, day 20, and day 85, samples were taken and dissolved in acetonitrile and water, and the content and impurity changes were detected by HPLC-related substance detection method.

Setting [7] is: Mus musculus, half effective dose.

4 molecules from patent EP4596556A1, “SPIROCYCLIC DERIVATIVE-CONTAINING SALT OR CRYSTAL FORM, AND PREPARATION METHOD THEREFOR AND USE THEREOF” (Shujing Biopharma Co., Ltd, priority 2022, dated 2024) can be followed below.

≈ marks a conversion by molar mass, not a printed value. Where a name gives a salt, the structure may show the parent alone. Read-outs that look alike come from different tables or passages of the source.

As usually defined, the ED50 is the midpoint of the dose-response relation. A lower ED50 goes with an effect at a small dose. By EC50 is commonly meant the concentration at which the effect is half-maximal. A lower EC50 goes with a more potent agent. A word on the Cmax: it is the highest concentration seen after dosing. Broadly, the Tmax is the time at which the peak concentration occurs. A word on the AUC(0-inf): it is the area under the concentration-time curve extrapolated to infinity. Higher therefore signals more exposure. One may read the half-life as how long it takes for the measured level to halve. Low readings indicate fast loss, high ones slow loss. For orientation: solubility means the dissolved amount per volume that the medium holds. Low readings indicate a poorly soluble substance, high ones a readily soluble substance. In general, Solubility refers to the dissolved amount per volume that the medium holds.

As for `CNC[C@@H]1OCC2(CC2)c2sccc21` (single isomer, unassigned) [Compound A], the values for the ED50 in data set [1] (setting [7]) and in data set [2] (setting [7]) were 0.45 mg/kg and 4.48 mg/kg, respectively. Moreover, the MED in data set [1] (minimum effective dose) is given as 0.1 mg/kg; in data set [2] (minimum effective dose), 10 mg/kg. Besides, the EC50 came to 1550 nM on TAAR1 receptor (cAMP agonist assay, cell line stably expressing TAAR1 receptor) and 1040 nM at 5-HT1A receptor (cAMP agonist assay, HEK293 cell line stably expressing 5-HT1A receptor, Forskolin). Also, the “TAAR1 Max Act%” value on TAAR1 receptor (maximum activation rate relative to PEA positive control) is 95.5%. At 5-HT1A receptor (maximum activation rate relative to Serotonin positive control), the “5-HT1A Max Act%” value is given as 95.2%.

Turning to `CNC[C@@H]1OCC2(CC2)c2sccc21` [(R)-1-(4'H,6'H-spiro[cyclopropane-1,7'-thieno[3,2-c]pyran]-4'-yl)-N-methylmethyl-amine], in data set [3], the “AUC(inf)” value was 1452.6 ng·h/mL, the Cmax was 480.3 ng/mL, the Tmax is recorded as 0.5 h and the t1/2 was determined as 3.6 h. In addition, in data set [3] (male, ICR, mouse, po), the AUC(0-inf) turned out to be 1930 ng·h/mL and the half-life is 2.8 h. Also, the Cmax in data set [3] (male, ICR, mouse, po, read-out: Cmax) was found to be 606 ng/mL. In data set [3] (male, mouse, read-out: Tmax), the Tmax is 0.5 h. The amount in solution in data set [4] (deionized water, 37 °C, water, thermodynamic from solid) (solubility at 24 h) came to 155 mg/mL (≈ 740 mM).

As for `CNC[C@@H]1OCC2(CC2)c2sccc21` [Hydrochloride crystal form I of Compound A] [(R)-1-(4'H,6'H-spiro[cyclopropane-1,7'-thieno[3,2-c]pyran]-4'-yl)-N-methylmethyl-amine], the solution stability result in data set [5] is “good stability”. In addition, in data set [6] (High humidity of RH 92.5%), the “Increase of total impurities (%) day 10” value is less than 0.1%, the “Increase of total impurities (%) day 20” value is reported as less than 0.1% and the “Increase of total impurities (%) day 85” value is given as 0.199%. Besides, in data set [6] (High temperature of 60°C), the “Increase of total impurities (%) day 10” value was less than 0.1%, the “Increase of total impurities (%) day 20” value is less than 0.1% and the “Increase of total impurities (%) day 85” value was determined as 0.182%. Moreover, in data set [6] (Illumination of 5000 lx), the “Increase of total impurities (%) day 10” value is less than 0.1%, the “Increase of total impurities (%) day 20” value is given as less than 0.1% and the “Increase of total impurities (%) day 85” value is reported as less than 0.1%.

As for `CNC[C@@H]1OCC2(CC2)c2sccc21` [Hydrochloride crystal form II of Compound A] [(R)-1-(4'H,6'H-spiro[cyclopropane-1,7'-thieno[3,2-c]pyran]-4'-yl)-N-methylmethyl-amine], in data set [3], the “AUC(inf)” value came out at 1546.6 ng·h/mL, the Cmax is on record as 488.7 ng/mL, the Tmax was found to be 0.5 h and the t1/2 is on record as 2.2 h. Moreover, the solution stability entry in data set [5] is “good stability”. For the same molecule, in data set [6] (High humidity of RH 92.5%), the “Increase of total impurities (%) day 10” value is less than 0.1%, the “Increase of total impurities (%) day 20” value was less than 0.1% and the “Increase of total impurities (%) day 85” value turned out to be 0.145%. In data set [6] (High temperature of 60°C), the “Increase of total impurities (%) day 10” value is given as less than 0.1%, the “Increase of total impurities (%) day 20” value is less than 0.1% and the “Increase of total impurities (%) day 85” value was determined as 0.133%. For the same molecule, in data set [6] (Illumination of 5000 lx), the “Increase of total impurities (%) day 10” value is on record as less than 0.1%, the “Increase of total impurities (%) day 20” value is given as less than 0.1% and the “Increase of total impurities (%) day 85” value is on record as less than 0.1%. In data set [4] (equilibrium solubility in deionized water, 37°C), this molecule showed a Solubility of 162.30 mg/mL.
